Data taken from patent publication US4556677A, “Alkane and alkene derivatives and their use” (Farmos Group Ltd., priority 1981, dated 1985).
Structures can show the parent of a compound that is named as a salt.

Assays:
[1] = test system: mouse uterus; assay: antiprogestanic/synergistic effect in vivo, given together with medroxyprogesterone acetate, mouse uterus weight
Procedure: (§1) The estrogen-antiestrogen (progesterone-antiprogesterone) effect in vivo was determined as follows:
(§2) The (anti)progestanic effects were studied in a similar manners as the estrogenic ones. Medroxyprogesterone acetate, which decreases uterus weight, was used as reference.
(§3) The progestanic and antiprogestanic effects of compounds were measured as described earlier. The compound No. 2 reduced the weight of mouse uterus by 49% compared to control while medroxyprogesterone acetate gave 40% reduction.
(§4) In Table 2 a summary of the oestrogenic/antioestrogenic and progestanic/antiprogestanic effect of some of the compounds can be seen. The percentages refer to increase/reduction in mice uterus weights.

[2] = test system: transplantable rat mammary adenocarcinoma; assay: effect on transplantable rat mammary adenocarcinoma; format: in vivo
Excerpt: (§5) The anti-tumour effect was investigated in vivo against DMBA-induced rat mammary adenocarcinomas and transplantable mammary adenocarcinoma according to the following methods:
Transplantable rat mammary adenocarcinoma was developed by inoculating pieces of DMBA-induced carcinomas subcutaneously to healthy mature female rats. A tumor which expressed malignant growth was selected for further transplantations.
The effects of compounds mentioned earlier against transplantable rat mammary adenocarcinoma can be seen in table 4.
The figures in table 4 refer to relative sizes compared to controls which is 100.

[3] = target: T1, estrogen receptors (Rattus norvegicus, UniProt P06211); assay: affinity to estrogen receptors, competition with 3H-labelled 17-β-estradiol (dextran-charcoal method); format: binding; details: rat uterus cytosol, Table 1; read-out: Affinity (concentration of compound where 50% competition (inhibition) with 3H-estradiol occurred)
T1 construct: rat uterus cytosol preparation; from tissue; host or cells: rat uterus cytosol
T1 sequence (P06211 1-600): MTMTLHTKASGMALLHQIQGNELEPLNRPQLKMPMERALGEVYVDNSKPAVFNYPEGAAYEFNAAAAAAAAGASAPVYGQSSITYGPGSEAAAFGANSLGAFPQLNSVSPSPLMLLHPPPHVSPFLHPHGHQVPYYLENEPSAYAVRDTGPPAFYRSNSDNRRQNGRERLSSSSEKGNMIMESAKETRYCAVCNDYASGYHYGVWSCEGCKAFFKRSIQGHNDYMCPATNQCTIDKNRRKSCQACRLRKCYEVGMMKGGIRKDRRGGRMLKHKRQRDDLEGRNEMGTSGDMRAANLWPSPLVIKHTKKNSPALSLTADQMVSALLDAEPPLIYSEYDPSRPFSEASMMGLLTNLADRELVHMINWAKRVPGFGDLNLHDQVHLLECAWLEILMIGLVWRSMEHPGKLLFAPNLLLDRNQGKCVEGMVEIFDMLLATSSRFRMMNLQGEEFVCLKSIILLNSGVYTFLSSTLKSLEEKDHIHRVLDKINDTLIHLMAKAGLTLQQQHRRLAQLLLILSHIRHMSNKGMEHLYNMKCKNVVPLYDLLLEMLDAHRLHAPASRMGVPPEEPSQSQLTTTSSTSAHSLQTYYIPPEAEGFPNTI
Procedure: The affinity to estrogen receptors was determined by the ability of the molecules to compete with ^3 H-labelled 17-β-estradiol in rat uterus cytosol preparation. After incubation, receptor-bound and receptor-unbound ligands were separated by a known dextrancharcoal method. (Korenman, S. G.: "Comparative binding affinity of estrogens and its relation to estrogenic potency". Steroids 13: 163-177, 1969). […] The results in table 1 are shown as follows: | with ^3 H--estradiol occurred

[4] = test system: immature mouse uterus; assay: antiestrogenic effect in vivo, inhibition of oestradiol induced uterus weight increase in immature mice; details: for inhibition of oestradiol induced effect on mouse uterus: 5 mg/kg
Procedure: as §1
The antiestrogenic effects of the molecules were determined in a similar manner in immature mice. In this case, the ability of the molecules to inhibit estrogen-induced uterus weight increase was investigated, too.
The compound 1 at a dose of 0.5 mg/kg caused a 50% inhibition of oestradiol induced effect on mouse uterus.
as §4

[5] = test system: MCF-7 human mammary adenocarcinoma cell line; assay: anti-tumour effect in vitro, growth of MCF-7 cells (bioluminescence ATP assay); format: cell-based; details: Homo sapiens, MCF7; MCF-7, Table 3; read-out: Antitumour effect (IC50 = concentration of compound where 50% inhibition of cell growth could be seen)
Procedure: The anti-tumour effect was studied in vitro as follows:
The growth of MCF-7 cell line (human mammary adenocarcinoma, known to be estrogen-dependent) was evaluated in the presence or absence of estradiol, medroxyprogesterone acetate or the molecules to be investigated. Combinations of molecule plus estradiol and molecule plus medroxyprogesterone were also studied. The amount of living cells after 4 h, 24 h and 48 h incubations were determined by bioluminescence assay (intracellular ATP determination).
The antitumour effects of the compounds had been tested in vitro against MCF-7 human mammary adenocarcinoma cell line and in vivo against DMBA-induced rat mammary adenocarcinomas and transplantable mammary adenocarcinoma.
In table 3 the antitumour effects of certain compounds can be seen.

[6] = test system: mouse uterus; assay: progestanic effect in vivo, reduction of mouse uterus weight; details: given alone
Procedure: as §1, §2, §3, §4

[7] = test system: immature mouse uterus; assay: estrogenic effect in vivo, immature mouse uterus weight; details: for oestrogenic effect, % less than that of oestradiol 0.05 mg/kg: s.c., immature mice; for estrogenic effect (in words): immature mouse uterus weight
Procedure: as §1
The estrogenic properties of the molecules were determined by administering the molecules, suspended in sesam oil, subcutaneously to 21 days old immature mice on three consecutive days. The mice were killed on the fourth day and the uterus was weighed. Estradiol (positive control) increases the weight of the uterus. The weight correlates with the estrogenic effect of the molecules.
The estrogenic effect of compounds of the invention as measured by their ability to increase the weight of immature mouse uterus was usually far less than that of oestradiol, the positive control. […] At the dose of 0.5 mg/kg the oestrogenic effect of compound 1, 7 and 8 were respectively 20%, 75% and 83% less and at the dose of 5 mg/kg the oestrogenic effect of compound 2 was 60% less than that of oestradiol 0.05 mg/kg.
as §4

[8] = test system: DMBA-induced rat mammary adenocarcinomas; assay: antitumour effect in vivo against DMBA-induced rat mammary adenocarcinomas; details: 7.5 mg/kg
Procedure: as §5
Mammary adenocarcinomas were induced by DMBA in 35-40 days old female rats. Treatment with the molecules to be investigated was started after palpable tumours had appeared. Tumour size and numbers of tumours were evaluated twice a week. Tumour sizes in the control group, treated with solvent, were compared with the test groups.
The antitumour effect in vivo against DMBA-induced mammary carcinomas was investigated as described earlier. […] Compound 2 at the dose of 7.5 mg/kg caused a 63% decrease in the size of tumours compared to the control.

[9] = test system: mouse uterus; assay: antiprogestanic/synergistic effect in vivo, given together with medroxyprogesterone acetate, mouse uterus weight; details: vs 20% for the acetate alone
[10] = Table 2, 0.5 mg/kg, with medroxyprogesterone acetate 0.06 mg/kg
[11] = together with medroxyprogesterone acetate
[12] = Table 2, 0.5 mg/kg, with oestradiol 0.05 mg/kg

## CC/C(=C(\c1ccccc1)c1ccc(OCCN(C)C)cc1)C1CCCC1 [Compound 2, (Z)--2-cyclopentyl-1-(p-(N,N--dimethyl-2-amino-ethoxy)phenyl)-1-phenyl-1-butene, hydrochloride]
[1]; [10]
  Given with medroxyprogesterone acetate: effect (in words): synergistic
  Given with medroxyprogesterone acetate: reduction in mice uterus weight: 61%
[1]; [11]
  antiprogestanic / synergistic effect with medroxyprogesterone acetate (in words): no antiprogestanic effects but a synergistic effect could be seen
[2]; 1.0 mg/kg
  relative tumour size compared to controls which is 100: 82
[2]; 5.0 mg/kg
  relative tumour size compared to controls which is 100: 87
[2]; 10.0 mg/kg
  relative tumour size compared to controls which is 100: 69
[3]
  IC50: 100 to 10000 nM
[4]
  inhibition of oestradiol induced effect on mouse uterus: 50%
[4]; [12]
  Given with oestradiol: effect (in words): antioestrogenic
  Given with oestradiol: reduction in mice uterus weight: 36%
[5]
  IC50: 5000 to 10000 nM
[6]; Table 2, 0.5 mg/kg
  Given alone: progestanic effect (in words): progestanic
  Given alone: reduction in mice uterus weight: 49%
[6]; dose not given
  reduction of mouse uterus weight compared to control: 49%
[7]; 5 mg/kg
  oestrogenic effect, % less than that of oestradiol 0.05 mg/kg: 60%
[7]; Table 2, 0.5 mg/kg, given alone
  Given alone: oestrogenic effect (in words): oestrogenic
[7]
  estrogenic effect (in words): dose dependent
[8]
  decrease in size of tumours compared to the control: 63%

## CC/C(=C(\c1ccccc1)c1ccc(OCCN(CC)CC)cc1)C1CCCC1 [Compound 8, (Z)-2-cyclopentyl-1-[p-(N,N-diethyl-2-aminoethoxy)phenyl]-1-phenyl-1-butene]
[9]
  decrease in the weight of mouse uterus together with medroxyprogesterone acetate: 16%
[1]; [10]
  Given with medroxyprogesterone acetate: reduction in mice uterus weight: 16%
[1]; higher doses, together with medroxyprogesterone acetate
  effect with medroxyprogesterone acetate at higher doses (in words): an antiprogestanic effect was achieved
[1]; [11]
  antiprogestanic / synergistic effect with medroxyprogesterone acetate (in words): neither synergism nor inhibition of medroxyprogesterone acetate was seen
[3]
  IC50: 100 to 1000 nM
[4]
  inhibition of oestradiol induced effect on mouse uterus: 30%
[4]; Table 2, 5 mg/kg, with oestradiol 0.05 mg/kg
  Given with oestradiol: reduction in mice uterus weight: 32%
[5]
  IC50: 1000 to 5000 nM
[6]; 0.05 mg/kg
  progestanic effect (in words): could be considered to be a progestanic one
[6]; 0.05 mg/kg (lowest dose)
  decrease in uterus weight: 12%
[7]; 0.5 mg/kg
  oestrogenic effect, % less than that of oestradiol 0.05 mg/kg: 83%
[7]
  estrogenic effect (in words): dose dependent
[7]; increased doses (above 0.05 mg/kg), given alone
  estrogenic effect at increased doses (in words): the estrogenic effect became evident
